Source: patent US11344627B2, “Dendrimer-exosome hybrid nanoparticles as a delivery platform” (WISCONSIN ALUMNI RESEARCH FOUNDATION, priority 2017, dated 2022)
Entries after “also recorded” stand apart in the source; their conditions may differ.

Tested on: HUVEC cells
Experiment: Immunostaining of P-selectin and VCAM-1 on endothelial cells upon TNF-α treatment
Format: cell-based, human
Settings: TNF-α 20 ng/mL, 4 hrs, confocal
Experimental: Immunostaining: To determine P-selectin and VCAM-1 expression on endothelial cells upon TNF-α-treatment, HUVEC cells were cultured on a cover glass and treated with 20 ng/mL of TNF-α at 37° C. for 4 hrs. The cells were fixed with 4% paraformaldehyde and blocked using a 5% BSA solution in PBS for 30 min. The cells were then incubated with primary antibodies against P-selectin or VCAM-1 for 1 hr at room temperature. The cells were incubated with fluorescence-labeled secondary antibodies for 1 hr at room temperature. The cells were washed, mounted with a mounting medium, and observed using a confocal microscope (Zeiss, Dublin, Calif.).
Potential advantages of using hMSC-derived exosomes would include the utilization of the homing properties of hMSCs to inflamed endothelia that are frequently found in cancerous regions. […] Human umbilical vein endothelial cells (HUVEC) were used to determine if the exosomes could potentially interact with the cells upon activation using TNF-α. TNF-α is known to induce expression of vascular cell adhesion molecule-1 (VCAM-1) and P-selectin that are directly involved in the hMSC binding to endothelial layers. The expression of VLA-4 and CD162 that are ligands binding to VCAM-1 and P-selectin, respectively, from the exosomes was confirmed using western blotting (FIG. 9).

TNF-α
P-selectin expression: overexpress; also recorded: increased | VCAM-1 expression: overexpress; also recorded: increased
